Values quoted from earlier work, collected in article PMC3975045 (ACS medicinal chemistry letters, 2013).

System: OX1 and OX2

[Ala^11,D-Leu^15]orexin B
selectivity for OX2 over OX1: 400 fold
